This is an account of results in patent publication US20150314007A1, “LINKER-PAYLOAD MOLECULE CONJUGATES” (GLYKOS FINLAND OY, priority 2012, published 2015).

This series relates to Human ovarian cancer cell line SKOV-3. The series is described as follows: In vitro cytotoxicity, SKOV-3 cell viability (PrestoBlue). Particulars: for cytotoxicity compared with 1 (MMAF): SKOV-3, applied to the cell culture medium; for cytotoxicity compared with 2 (monomethyldolastatin 10): SKOV-3.
Setting [1] is: SKOV-3, 96 h, concentration range wherein viability falls to 50%, measured range 1 nM-10 μM.

Where a SMILES comes first, the peptide text is derived from it. [ ]: non-standard residue; d: D form. The star is where a group is joined. Dolaproine = CO[C@@H]([C@@H]1CCCN1)[C@@H](C)C(=O)O; Dil = CC[C@H](C)[C@H](NC)[C@@H](CC(=O)O)OC; Doe = c1ccc(C[C@H](N*)c2nccs2)cc1; NMeV = CN[C@H](C(=O)O)C(C)C

Procedure: Human ovarian cancer cell line SKOV-3 was from the ATCC (Manassas, Va., USA). The cells were grown according to the manufacturer's recommendations. Log phase cultures were collected and 5000 cells/well were seeded onto 96-well plates and incubated for 24 h. Serial dilutions of test molecules from a stock solution of 100 μM in 10% DMSO were made in cell culture medium, added to cells (maximum concentration of dimethylsulphoxide was 1%) and cultures were incubated further for 96 h. Cell viability was evaluated using PrestoBlue cell viability reagent (Life Technologies, Carlsbad, Calif., USA) according to the manufacturer's instructions. Cells were incubated for 2 h, and dye reduction was measured by absorbance at 570 nm. The compounds were assayed 1-2 times in triplicate.

Under setting [1], `CC[C@H](C)[C@@H]([C@@H](CC(=O)N1CCC[C@H]1[C@H](OC)[C@@H](C)C(=O)N[C@@H](Cc1ccccc1)C(=O)O)OC)N(C)C(=O)[C@@H](NC(=O)[C@@H](NC)C(C)C)C(C)C` [Compound 1, Monomethylauristatin F, reference compound] (HELM PEPTIDE1{[meV].V.[CC[C@H](C)[C@@H]([C@@H](CC(=O)[*:2])OC)N(C)[*:1]].[CO[C@H]([C@@H](C)C(=O)[*:2])[C@@H]1CCCN1[*:1]].F}$$$$V2.0) gave an IC50 of 100 to 1000 nM.

`CC[C@H](C)[C@@H]([C@@H](CC(=O)N1CCC[C@H]1[C@H](OC)[C@@H](C)C(=O)N[C@@H](Cc1ccccc1)c1nccs1)OC)N(C)C(=O)[C@@H](NC(=O)[C@@H](NC)C(C)C)C(C)C` [Compound 2, monomethyldolastatin 10, reference compound] (H-[NMeV]V[Dil][Dolaproine]-Doe) displayed an IC50 under setting [1] of less than 1 nM. On to `CCC(C)C(C(CC(=O)N1CCCC1C(OC)C(C)C(=O)NC(Cc1ccccc1)C(=O)O)OC)N(C)C(=O)C(NC(=O)C(C(C)C)N(C)CCC(O)C(O)C(O)CO)C(C)C` [Compound 5, N-(2-deoxy-D-glucosyl)-MMAF], for which the “cytotoxicity compared with 1 (MMAF)” value is given as “equally or only slightly less cytotoxic”. In addition, the IC50 (Homo sapiens, SK-OV-3, 96 h) came out at 1000 nM. For `C#CCCN(C)C(C(=O)NC(C(=O)N(C)C(C(C)CC)C(CC(=O)N1CCCC1C(OC)C(C)C(=O)NC(Cc1ccccc1)C(=O)O)OC)C(C)C)C(C)C` (centres unmarked) [Compound 6, N-(3-butynyl)-MMAF], the “cytotoxicity compared with 1 (MMAF)” value is “more cytotoxic”. Moreover, the IC50 (Homo sapiens, SK-OV-3, 96 h) is less than 1 nM. For `CCC(C)C(C(CC(=O)N1CCCC1C(OC)C(C)C(=O)NC(Cc1ccccc1)C(=O)O)OC)N(C)C(=O)C(NC(=O)C(C(C)C)N(C)CC(O)C(O)C(O)C(O)COC1OC(CO)C(O)C(O)C1O)C(C)C` [Compound 8, N-[6-O-(β-D-galactopyranosyl)-D-galactosyl]-MMAF], in that order: “less cytotoxic” and 1000 to 10000 nM. The molecule `CCC(C)C(C(CC(=O)N1CCCC1C(OC)C(C)C(=O)NC(Cc1ccccc1)C(=O)O)OC)N(C)C(=O)C(NC(=O)C(C(C)C)N(C)CC(O)C(O)C(OC1OC(CO)C(OC2OC(CO)C(O)C(O)C2O)C(O)C1O)C(O)CO)C(C)C` [Compound 10, N-{4-O-[4-O-(α-D-galactopyranosyl)-β-D-galactopyranosyl]-D-glucosyl}-MMAF] displayed an IC50 (Homo sapiens, SK-OV-3, 96 h) of 1000 to 10000 nM. Take `CCC(C)C(C(CC(=O)N1CCCC1C(OC)C(C)C(=O)NC(Cc1ccccc1)C(=O)O)OC)N(C)C(=O)C(NC(=O)C(C(C)C)N(C)CC(O)C(O)C(OC1OC(CO)C(O)C(OC2(C(=O)O)CC(O)C(NC(C)=O)C(C(O)C(O)CO)O2)C1O)C(O)CO)C(C)C` [Compound 11, N-{4-O-[3-O-(α-N-acetylneuraminyl)-β-D-galactopyranosyl]-D-glucosyl}-MMAF]: the “cytotoxicity compared with 1 (MMAF)” value is given as “less cytotoxic”. Under “Homo sapiens, SK-OV-3, 96 h”, the IC50 was more than 10000 nM. As for `CCC(C)C(C(CC(=O)N1CCCC1C(OC)C(C)C(=O)NC(Cc1ccccc1)c1nccs1)OC)N(C)C(=O)C(NC(=O)C(C(C)C)N(C)CC(O)C(O)C(O)C(O)CN=[N+]=[N-])C(C)C` [Compound 13, N-(6-azido-6-deoxy-D-galactosyl)-dolastatin 10], the “cytotoxicity compared with 2 (monomethyldolastatin 10)” value is “equally or only slightly less cytotoxic”. Moreover, under “Homo sapiens, SK-OV-3, 96 h”, the half-inhibitory concentration (IC50) was less than 1 nM. Under setting [1], “N-(6-O-propargyl-D-galactosyl)-MMAF [Compound 3]” displayed a 50% inhibitory concentration (IC50) of 100 to 10000 nM. Molecule “N-(6-azido-6-deoxy-D-galactosyl)-MMAF [Compound 4]” showed a concentration for half-maximal inhibition (IC50) under setting [1] of 100 to 1000 nM. Consider N-glutaryl-MMAF [Compound 14b], for which the “cytotoxicity compared with 2 (monomethyldolastatin 10)” value is “equally or only slightly less cytotoxic”. The molecule further yielded an IC50 under setting [1] of 100 to 1000 nM.

One may read the IC50 as the concentration needed to halve the response being measured. High values mean weaker potency, low ones greater potency.
